Here are results for two compounds from patent EP3046573B1, “AMYLIN ANALOGUES” (Zealand Pharma A/S, priority 2013, dated 2015).

The target in series [1] is T1, human calcitonin receptor (hCTR2) (Homo sapiens, UniProt P30988).
T1 construct: expressed in transfected cells
T1 sequence (P30988 25-474): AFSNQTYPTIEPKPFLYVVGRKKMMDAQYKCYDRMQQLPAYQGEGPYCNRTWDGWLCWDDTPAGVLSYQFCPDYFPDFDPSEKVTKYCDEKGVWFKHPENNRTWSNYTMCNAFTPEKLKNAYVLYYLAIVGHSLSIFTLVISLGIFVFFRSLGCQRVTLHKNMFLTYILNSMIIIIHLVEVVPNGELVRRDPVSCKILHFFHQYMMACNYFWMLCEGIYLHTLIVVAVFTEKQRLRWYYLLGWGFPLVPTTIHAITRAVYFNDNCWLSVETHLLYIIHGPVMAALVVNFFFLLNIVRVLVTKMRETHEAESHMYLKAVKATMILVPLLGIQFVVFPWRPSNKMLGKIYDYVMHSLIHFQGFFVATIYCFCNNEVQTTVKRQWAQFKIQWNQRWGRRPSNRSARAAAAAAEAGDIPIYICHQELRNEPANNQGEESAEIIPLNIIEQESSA
As to the kind of experiment: hCTR2 assay: induction of cAMP (AlphaScreen cAMP Assay kit) in COS7 cells expressing hCTR2. The series is classed as cell-based. The note with it: cAMP induction in COS7 cells expressing hCTR2; average of a minimum of 3 determinations; read-out: hCTR2 EC50. The method, boiled down:
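Stable hCTR2 clone in RAMP-naive COS7 cells; peptides titrated in Tyrode buffer (pH 7.4) with 100 µM IBMX, 0.1% casein, 15 min at 37° C. cAMP read by AlphaScreen after lysis; EC50 and efficacy relative to pramlintide from 4PL fit.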

Series [2] deals with T2, human amylin receptor 3 (hAMYR3) consisting of hCTR2 co-expressed with human Receptor Activity Modifying Protein 3 (hRAMP3) (Homo sapiens, UniProt O60896+P30988).
T2 construct: expressed in transfected cells
T2 sequence (P30988 25-474): T1 sequence (P30988 25-474)
T2 sequence (O60896 24-148 partner): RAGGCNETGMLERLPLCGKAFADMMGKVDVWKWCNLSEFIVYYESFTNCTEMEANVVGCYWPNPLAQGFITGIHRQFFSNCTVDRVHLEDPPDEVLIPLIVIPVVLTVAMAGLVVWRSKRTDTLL
Kind of series: hAMYR3 assay: induction of cAMP (AlphaScreen cAMP Assay kit) in COS7 cells expressing hAMYR3. It is filed as cell-based. The note with it: cAMP induction in COS7 cells expressing hAMYR3; average of a minimum of 3 determinations; read-out: hAMY R3 EC50. The method, boiled down: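 Stable COS7 clone co-expressing hCTR2 and hRAMP3, stimulated 15 min at 37° C with increasing peptide in Tyrode buffer pH 7.4 with 100 µM IBMX and 0.1% casein. cAMP measured by AlphaScreen after lysis; EC50 and % efficacy versus pramlintide from 4PL fit.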

Series [3] can be described thus: Solubility assessment (turbidity absorbance at 325 nm). It is filed as physicochemical. The note with it: stock 2 mg/ml diluted 1:1, ambient temperature (typically 25°C), n=1; for Solubility, Acetate buffer pH 4: 100 mM acetate buffer pH 4.0; for Solubility, Acetate buffer pH 5: 100 mM acetate buffer pH 5.0; for Solubility, Histidine buffer pH 6: 100 mM histidine buffer pH 6.0; for Solubility, Histidine buffer pH 7: 100 mM histidine buffer pH 7.0; for Solubility, Phosphate buffer pH 6: 100 mM phosphate buffer pH 6.0; for Solubility, Phosphate buffer pH 7: 100 mM phosphate buffer pH 7.0; for Solubility, Phosphate buffer pH 7.5: 100 mM phosphate buffer pH7.5. The method in brief:
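Stock 2 mg/ml peptide, H2O/HCl pH 2.5; 1:1 into 100 mM buffers: acetate pH 4.0/5.0, His pH 6.0/7.0, phosphate pH 6.0/7.0/7.5. A280 + A325, ~25°C, n=1. Soluble ≥ 1 mg/ml if A325 ≤ 0.02.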

pEC50: −log10 of the molar value. Numbered stars: 1 amine (or outer) side, 2 acyl side, 3 side chain; on linkers, the order of the positions; unused ones are H or OH. Bridge positions count the residues as written; N and C are the ends. Square brackets hold non-standard residues; d marks the D form. Peptide text beside a SMILES is read from it. * marks the point of attachment. C20 diacid = O=C(O)CCCCCCCCCCCCCCCCCCC(=O)*; γGlu = O=C(O)[C@H](CCC(=O)[*:2])N[*:1]; NMeI = CC[C@H](C)[C@H](NC)C(=O)O; Sar = CNCC(=O)O

For the compound `CC[C@H](C)[C@@H](C(=O)N[C@@H](CC(C)C)C(=O)N[C@@H](CO)C(=O)N[C@@H](CO)C(=O)N[C@H](C(=O)N[C@@H](CC(=O)O)C(=O)N[C@H](C(=O)NCC(=O)N[C@@H](CO)C(=O)N[C@@H](CC(=O)O)C(=O)N[C@H](C(=O)N1CCC[C@H]1C(N)=O)[C@@H](C)O)C(C)C)[C@@H](C)O)N(C)C(=O)[C@H](C)NC(=O)CN(C)C(=O)[C@H](Cc1ccccc1)NC(=O)[C@H](CO)NC(=O)[C@H](CO)NC(=O)[C@H](CO)NC(=O)[C@H](CO)NC(=O)[C@H](CCCNC(=N)N)NC(=O)[C@H](Cc1c[nH]cn1)NC(=O)[C@H](CC(C)C)NC(=O)[C@H](Cc1ccccc1)NC(=O)[C@H](CCC(=O)O)NC(=O)[C@H](C)NC(=O)[C@H](CC(C)C)NC(=O)[C@H](CCCNC(=N)N)NC(=O)[C@H](CCC(=O)O)NC(=O)[C@@H](NC(=O)[C@H](C)NC(=O)[C@@H]1CSSC[C@H](NC(=O)[C@H](CCCNC(=N)N)NC(=O)CC[C@H](NC(=O)CCCCCCCCCCCCCCCCCCC(=O)O)C(=O)O)C(=O)N[C@@H](CC(N)=O)C(=O)N[C@@H]([C@@H](C)O)C(=O)N[C@@H](C)C(=O)N[C@@H]([C@@H](C)O)C(=O)N1)[C@@H](C)O` [Compound 160, [19CD]-isoGlu-RC()NTATC()ATERLAEFLHRSSSSF-Gly(Me)-A-Ile(Me)-LSSTDVGSDTP-NH2] ({C20 diacid-γGlu}-RCNTATCATERLAEFLHRSSSSF[Sar]A[NMeI]LSSTDVGSDTP-NH2; disulfide 2-7), the pEC50 in series [1] was 9.89. Also, in series [2], the negative logarithm of the EC50 (pEC50) is 9.85. Besides, in series [3], the “Solubility, Acetate buffer pH 4” value is “SS (SS indicates solubility ≥ 1mg/ml)”; the “Solubility, Acetate buffer pH 5” value is reported as “SS (SS indicates solubility ≥ 1mg/ml)”; the “Solubility, Histidine buffer pH 6” value is “SS (SS indicates solubility ≥ 1mg/ml)”; the “Solubility, Histidine buffer pH 7” value is “SS (SS indicates solubility ≥ 1mg/ml)”. Also, in series [3], the “Solubility, Phosphate buffer pH 6” value is “SS (SS indicates solubility ≥ 1mg/ml)”; the “Solubility, Phosphate buffer pH 7” value was “SS (SS indicates solubility ≥ 1mg/ml)”; the “Solubility, Phosphate buffer pH 7.5” value is recorded as “SS (SS indicates solubility ≥ 1mg/ml)”.
Regarding `CC[C@H](C)[C@@H](C(=O)N[C@@H](CC(C)C)C(=O)N[C@@H](CO)C(=O)N[C@@H](CO)C(=O)N[C@H](C(=O)N[C@@H](CCC(=O)O)C(=O)N[C@H](C(=O)NCC(=O)N[C@@H](CO)C(=O)N[C@@H](CCC(=O)O)C(=O)N[C@H](C(=O)N1CCC[C@H]1C(N)=O)[C@@H](C)O)C(C)C)[C@@H](C)O)N(C)C(=O)[C@H](C)NC(=O)CN(C)C(=O)[C@H](Cc1ccccc1)NC(=O)[C@H](CO)NC(=O)[C@H](CO)NC(=O)[C@H](CO)NC(=O)[C@H](CO)NC(=O)[C@H](CCCNC(=N)N)NC(=O)[C@H](Cc1c[nH]cn1)NC(=O)[C@H](CC(C)C)NC(=O)[C@H](Cc1ccccc1)NC(=O)[C@H](CCC(=O)O)NC(=O)[C@H](C)NC(=O)[C@H](CC(C)C)NC(=O)[C@H](CCCNC(=N)N)NC(=O)[C@H](CCC(=O)O)NC(=O)[C@@H](NC(=O)[C@H](C)NC(=O)[C@@H]1CSSC[C@H](NC(=O)[C@H](CCCCN)NC(=O)[C@H](CCCCN)NC(=O)CC[C@H](NC(=O)CCCCCCCCCCCCCCCCCCC(=O)O)C(=O)O)C(=O)N[C@@H](CCC(=O)O)C(=O)N[C@@H]([C@@H](C)O)C(=O)N[C@@H](C)C(=O)N[C@@H]([C@@H](C)O)C(=O)N1)[C@@H](C)O` [Compound 163, [19CD]-isoGlu-KKC()ETATC()ATERLAEFLHRSSSSF-Gly(Me)-A-Ile(Me)-LSSTEVGSETP-NH2] ({C20 diacid-γGlu}-KKCETATCATERLAEFLHRSSSSF[Sar]A[NMeI]LSSTEVGSETP-NH2; disulfide 3-8), in series [1], the negative logarithm of the EC50 (pEC50) was 9.38. Moreover, the pEC50 in series [2] was 9.13. Moreover, in series [3], the “Solubility, Acetate buffer pH 4” value was “SS (SS indicates solubility ≥ 1mg/ml)”; the “Solubility, Acetate buffer pH 5” value is on record as “SS (SS indicates solubility ≥ 1mg/ml)”; the “Solubility, Histidine buffer pH 6” value was “SS (SS indicates solubility ≥ 1mg/ml)”; the “Solubility, Histidine buffer pH 7” value is “SS (SS indicates solubility ≥ 1mg/ml)”. Moreover, in series [3], the “Solubility, Phosphate buffer pH 6” value is recorded as “SS (SS indicates solubility ≥ 1mg/ml)”; the “Solubility, Phosphate buffer pH 7” value is reported as “II (II indicates solubility ≤ 1 mg/ml)”; the “Solubility, Phosphate buffer pH 7.5” value is reported as “SS (SS indicates solubility ≥ 1mg/ml)”.

By pEC50 is commonly meant the negative decadic logarithm of the EC50, by convention in mol/L.
